Values quoted from earlier work, collected in patent US6629835B2, “Combinations of diterpene triepoxide lactones and ditepene lactones or triterpenes for synergistic inhibition of cyclooxygenase-2” (MetaProteomics, LLC, priority 2000, dated 2003).

Settings: gastrointestinal disturbance, nausea and vomiting, hypotension, edema; cited from earlier work

**Q.** With `CC(C)[C@]12O[C@H]1[C@@H]1O[C@]13[C@]1(O[C@H]1C[C@H]1C4=C(CC[C@@]13C)C(=O)OC4)[C@@H]2O` [Triptolide] as the compound, how does the “Patients showing some type of side effects” value read?
**A.** Its value is “Approximately 28%”.
